From patent US5324725A, “7-fused 2-(piperazinoalkyl) indole derivatives, intermediates and compositions thereof” (Kali-Chemie Pharma GmbH, priority 1991, dated 1994)
Like-named read-outs stand apart in the source and are kept apart here.

Target: T1, histamine (H1) receptor (Cavia porcellus, UniProt P31389)
T1 construct: isolated smooth muscle of the guinea-pig ileum; from tissue; host or cells: isolated ileum segments of Dunkin Hartley guinea-pigs
Assay: Antihistamine (H1) effect: inhibition of histamine-induced contractions of isolated guinea-pig ileum in vitro
Assay type: cell-based, guinea-pig (Dunkin Hartley)
Details: histamine 5 × 10^-6 mol/l, test substance 10^-6 mol/l
Description: 3. Investigation of the antihistamine (H1) effect based on histamine (H1) receptor antagonism in vitro.
To investigate the histamine (H1) receptor antagonism of the substances, the inhibitory effect thereof on histamine-induced contractions of the smooth musculature of isolated organ was determined in vitro. Isolated strips of organ from the ileum were used. In an organ bath of physiological saline solution, they react to addition of histamine by contracting. Addition of the compounds of the invention decreases this histamine-induced contraction of the smooth musculature of the ileum strips. The extent of decrease of the contraction is an indication of the antihistamine (H1) activity of the compounds. The investigation is carried out analogously to the method originally described by Magnus (Pflugers Arch. 102, 123 (1904)).
Experimental description of the determination of the inhibitory effect on the contraction induced by a 5×10^-6 molar histamine concentration on isolated smooth muscle of the guinea-pig ileum.
For the test, 1.5 cm long segments of the ileum from Dunkin Hartley guinea-pigs having a body weight of 300-500 g were employed. Each strip was placed in an organ bath of 10 ml of Krebs-Henseleit physiological saline solution and attached to a customary apparatus for isotonically measuring changes in length of the ileum strip (automated Celaster measuring apparatus) so that the tissue is under a tension of 1 g. The bath was kept at a pH of 7.4 and aerated with a mixture of 5% CO2 and 95% O2. After an equilibration phase, an isotonic contraction of the tissue was produced by adding histamine in a final concentration of 5×10^-6 mol/l and was washed out again after a contact time of 30 seconds. Only those tissues in which three reproducible contractions were obtained at 10 minute intervals were used in the subsequent test. The test substances were then added in a final concentration of 10^-6 mol/l, and after a contact time of 30 seconds histamine was again added up to a concentration of 5×10^-6 mol/l. The contractions which occurred were measured over the course of 30 seconds. The tissue was then washed several times over a period of 10 minutes. A contraction challenge was then induced again by addition of histamine. The contractions which occurred were again measured over 30 seconds. The difference between the amplitude of the contraction obtained by histamine addition alone and the amplitude of the contraction obtained in the presence of the test substance was determined and calculated as % inhibition.
The inhibitory effects on the contractions induced by histamine 30 seconds after administration of the test substance and on the contractions induced by addition of histamine 10 minutes afterward are given in the table.

[1] = after 30 sec., read-out: in vitro (H1) receptor antagonism % inhibitory effect on histamine-induced contractions of the Ileum, after 30 sec.
[2] = after 10 min. (after washing), read-out: in vitro (H1) receptor antagonism % inhibitory effect on histamine-induced contractions of the Ileum, after 10 min.

T1 sequence (P31389 whole entry): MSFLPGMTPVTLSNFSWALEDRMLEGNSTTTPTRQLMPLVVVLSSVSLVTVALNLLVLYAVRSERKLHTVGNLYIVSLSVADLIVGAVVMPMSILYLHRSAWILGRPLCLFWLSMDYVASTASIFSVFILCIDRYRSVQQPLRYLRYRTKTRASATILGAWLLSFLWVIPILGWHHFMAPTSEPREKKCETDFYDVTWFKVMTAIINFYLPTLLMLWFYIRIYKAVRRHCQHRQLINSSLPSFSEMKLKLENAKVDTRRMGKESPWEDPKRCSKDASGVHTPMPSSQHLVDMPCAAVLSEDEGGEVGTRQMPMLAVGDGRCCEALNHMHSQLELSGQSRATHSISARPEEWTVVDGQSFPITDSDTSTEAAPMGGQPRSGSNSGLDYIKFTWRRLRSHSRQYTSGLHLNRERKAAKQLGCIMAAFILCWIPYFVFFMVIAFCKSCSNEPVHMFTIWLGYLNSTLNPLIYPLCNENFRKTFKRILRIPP

For Cc1ccnc(N2CCN(CCc3c(C)n4c5c(cccc35)SCC4)CC2)c1 [Example 11, 5-Methyl-6-{2-[4-(4-methylpyridin-2-yl)piperazin-1-yl]ethyl}-2,3-dihydro-pyrrolo[1,2,3-de]-1,4-benzo-thiazine], the inhibition at 1 µM [1] was 21% and the inhibition at 1 µM [2] was 84%.
In the case of Cc1ccnc(N2CCN(CCc3c(C)n4c5c(cc([N+](=O)[O-])cc35)CCC4)CC2)c1 [Example 10, 2-Methyl-8-nitro-1-{2-[4-(4-methylpyridin-2-yl)-piperazin-1-yl]ethyl}-5,6-dihydro-4H-pyrrolo[3,2,1-ij]quinoline], the inhibition at 1 µM [1] is reported as 47% and the inhibition at 1 µM [2] is reported as 92%.
Cc1ccnc(N2CCN(CCc3c(C)n4c5c(cc(C)cc35)CCC4)CC2)c1 [Example 54] was tested, and the inhibition at 1 µM [1] was 8% and the inhibition at 1 µM [2] was 94%.
CCc1c(CCN2CCN(c3cc(C)ccn3)CC2)c2cccc3c2n1CCC3 [Example 15, 2-Ethyl-5,6-dihydro-1-{2-[4-(4-methylpyridin-2-yl)piperazin-1-yl]ethyl}-4H-pyrrolo[3,2,1-ij]quinoline] gave an inhibition at 1 µM [1] of 29% and an inhibition at 1 µM [2] of 78%.
Cc1ccnc(N2CCN(CCc3c(C)n4c5c(cccc35)C(C)CC4)CC2)c1 (stereo not shown) [Example 57] showed an inhibition at 1 µM [1] of 20% and an inhibition at 1 µM [2] of 80%.
CC(=O)Oc1cc2c3c(c1)c(CCN1CCN(c4cc(C)ccn4)CC1)c(C)n3CCC2 [Example 24, 8-Acetoxy-5,6-dihydro-2-methyl-1-{2-[4-(4-methyl-pyridin-2-yl)piperazin-1-yl]ethyl}-4H-pyrrolo[3,2,1-ij]quinoline] showed an inhibition at 1 µM [1] of 81% and an inhibition at 1 µM [2] of 94%.
Cc1ccnc(N2CCN(CCc3cn4c5c(cccc35)CCC4)CC2)c1 [Example 13, 5,6-Dihydro-1-{2-[4-(4-methylpyridin-2-yl)piperazin-1-yl]ethyl}-4H-pyrrolo[3,2,1-ij]quinoline] showed an inhibition at 1 µM [1] of 33% and an inhibition at 1 µM [2] of 63%.
In the case of Cc1ccnc(N2CCN(CCc3c(C)n4c5c(cc(NC(=O)C(C)C)cc35)CCC4)CC2)c1 [Example 60], the inhibition at 1 µM [1] is reported as 9% and the inhibition at 1 µM [2] is reported as 37%.
